Data published in patent publication US20060088560A1, “Cosmetic use of mangiferin” (LA[…] BIOLOGIE VEGETALE YVES ROCHER, priority 2004, published 2006).

Key:
MMP1 metalloprotease = test: Assay of MMP1 metalloprotease (ELISA, per viable cell unit by MTT) in NHDFs after heat stimulation; assay type: cell-based, human; conditions: mangiferin 2.10^-4% w/v, MMP1 per viable cell unit vs reference without mangiferin
Description: In this example, to illustrate the inhibitive action of mangiferin on the expression of MMP enzymes, the quantity of MMP1 enzymes present in normal human dermal fibroblasts (NHDFs) after a heat stress in the presence of mangiferin was compared with the quantity obtained for NHDFs in a reference medium subjected to the same conditions but without the presence of mangiferin.
This comparison was made for different conditions of heat treatment (no stress, hot stress, cold stress).
In each case, the tested NHDFs were placed in culture then treated under the following conditions:
The first day (day D), the NHDFs were seeded to a proportion of 160 000 cells/well/mL in 24-well plates in a normal medium.
The following day (day D+1), the culture medium was depleted of serum.
When the test was conducted in the presence of mangiferin, the treatment with mangiferin was complete, i.e. the mangiferin was added to the medium to a content of 2.10^−4 g/100 mL (2.10^−4% w/v) 24 hours before the heat stress, during the heat stress and 24 hours after the onset of heat stress.
On the contrary, no mangiferin at all was added to the references.
After these steps, 24 hours after the heat stress, the MMP1 present in the medium was assayed using a quantitative technique of ELISA type, with a commercial Amersham kit. In parallel, the number of viable cells in the medium was determined using the MTT colorimetric test. On the basis of these elements, a MMP1 content was determined per viable cell unit.
For each of the heat treatment conditions, a reduction in MMP1 content was observed per viable cell unit in the presence of mangiferin, compared with the content obtained in the references without mangiferin. In this respect, a percentage inhibition of MMP1 expression (Pi) is defined which is calculated using the following formula: Pi(as %)=(Tt−Tm)/Tt in which: • Tm designates the MMP1 content per viable cell unit in the presence of mangiferin; • Tt designates the MMP1 content per viable cell unit for the reference without mangiferin under the same heat treatment conditions.

HSP70 [1] = test: Preventive protection: HSP70 immunolabeling in normal human dermal fibroblasts treated with mangiferin before hot heat stress; assay type: cell-based
Method: (§1) Normal human dermal fibroblasts (NHDFs) are seeded (passage 3) onto glass Labtek culture chambers (8 chambers/slide) to a proportion of 10 000 cells/chamber and incubated for 10 hours in an incubator at 37° C., 5% CO2 and 95% humidity. The culture medium consists of DMEM devoid of phenol red (Invitrogen, ref. 31053028) supplemented with 10% fetal calf serum (FCS) (Invitrogen, ref 16010159, batch 40F1420D), 1% of a solution of non-essential amino acids (Invitrogen, ref 11140035), 100 μg/ml penicillin, 100 U/ml streptomycin, 2 mM L-gluthamine and 1% of a sodium pyruvate solution (Invitrogen, ref. 11360039).
The NHDFs are treated for 15 hours with mangiferin solubilized at 0.1% in DMSO, then diluted in the culture medium (DMEM with 1% FCS) to 2.10^−4%. A reference culture medium is also made on the same slide. To validate the study, a slide is treated in the same manner but the cells are not subjected to stress.
The cells are subsequently rinsed in Hanks Balanced Saline Solution (HBSS buffer Invitrogen, ref. 14025050) then placed under hot thermal stress conditions: incubation 1 hour at +45° C. in the HBSS solution (0.4 ml per chamber.).
After the stress, the cells are rinsed in the HBSS solution then incubated 8 hours in the culture medium (DMEM with 1% FCS), in an incubator at 37° C., 5% CO2 and 95% humidity.
The cells are rinsed in HBSS solution 8 hours after the stress. […]

HSP70 [2] = test: Curative protection: HSP70 immunolabeling in normal human dermal fibroblasts treated with mangiferin after hot heat stress; assay type: cell-based
Method: as §1, with “The” for “Normal human dermal”, “(NHDFS)” for “(NHDFs)”
The NHDFs are rinsed in the HBSS solution then incubated 15 hours in the culture medium (DMEM with 1% FCS), in an incubator at 37° C., 5% CO2 and 95% humidity.
The cells are subsequently rinsed in an HBSS solution (Invitrogen, ref. 14025050) then placed under conditions of hot thermal stress: incubation 1 hour at +45° C. in the HBSS solution (0.4 ml per chamber).
After the stress, the cells are rinsed in the HBSS solution then treated for 8 hours with the mangiferin solubilized in the DMSO, then diluted in the culture medium (DMEM with 1% FCS) to 2.10^−4%. A reference culture medium is also made on the same slide.
The cells are rinsed in an HBSS solution 8 hours after the stress. The culture chambers are removed and the cells left to dry under a laminar flow hood. […]

[3] = cited from earlier work

O=c1c2cc(O)c(O)cc2oc2cc(O)c([C@@H]3O[C@H](CO)[C@@H](O)[C@H](O)[C@H]3O)c(O)c12 [mangiferin, C-glucoside of tetrahydroxy-1,3,6,7 xanthone]
Percentage inhibition Pi of MMP1 expression (MMP1 metalloprotease; Cold heat stress: 10 min at −20° C.): 22% | Percentage inhibition Pi of MMP1 expression (MMP1 metalloprotease; Hot heat stress: 30 min at +45° C.): 51% | Percentage inhibition Pi of MMP1 expression (MMP1 metalloprotease; Hot heat stress: 30 min at +50° C.): 40% | Percentage inhibition Pi of MMP1 expression (MMP1 metalloprotease; Hot heat stress: 1 h at +45° C.): 36% | Percentage inhibition Pi of MMP1 expression (MMP1 metalloprotease; No heat stress: 1 h at +37° C.): 34% | Labeling of the HSP70s (HSP70 [1]; NHDFs treated with mangiferin 2.10^-4% for 15 hours before stress (1 hour at +45° C.), read 8 hours after stress, vs untreated stressed cells): further intensified | Basic expression of the HSP70s (labeling) (HSP70 [1]; NHDFs, no stress, mangiferin 2.10^-4% for 15 hours): not modified | Labeling of the HSP70s (HSP70 [2]; NHDFs treated with mangiferin 2.10^-4% for 8 hours after stress (1 hour at +45° C.), vs untreated stressed cells): reduced | Basic expression of the HSP70s (labeling) (HSP70 [2]; NHDFs, no stress, mangiferin 2.10^-4% for 8 hours): not modified | Solubility in alkaline liquids ([3]; alkaline liquids (salt formation by phenol OH groups)): soluble | Solubility in cold water ([3]; cold water): scarcely soluble
